Measured values: US10501413B2, “Inhibitors of the Notch transcriptional activation complex and methods for use of the same” (UNIVERSITY OF MIAMI, priority 2015, dated 2019)

Columns and labels:
[1] = system: Notch target gene transcription; assay: RT-qPCR of Notch target genes in cancer cell lines; type: cell-based, human
Experimental: (§1) The effect of inhibitor treatment on Notch-target gene transcription also was investigated (FIGS. 2C and 2D). […] As proof of specificity, transcription of the housekeeping gene, HPRT, was unaltered in treated cells. To test the effects of Notch inhibition on proliferation, a colony formation assay was performed.
(§2) To extend the analysis of tumor cell growth inhibition, several commonly used cancer cell lines were selected to test for sensitivity to Inhibitor No. 1-134-83 (FIGS. 3A and 3B). […] In this analysis, sensitivity to DAPT is taken to indicate specific inhibition of Notch activity. […] Cells that are refractory to DAPT were equally resistant to Inhibitor No. 1-134-83.
RT-PCR analysis was performed using TaqMan probes according to manufacturer's instructions. In particular, 80 ng of RNA equivalent was used per reaction. Gene expression was normalized to the TATA-binding protein (“TBP”) gene. As a control, hypoxanthine phosphoribosyltransferase 1 (“HPRT”) gene expression was also monitored.

[2] = system: Notch-dependent somite formation; assay: Zebrafish somite formation; type: in vivo, D. rerio; conditions: embryos soaked in 40 μM from 8 hPF, scored at 13 hPF
Source text: The in vivo effects of the inhibitors of the disclosure also were investigated using D. rerio. Notch signaling plays a role in somite formation in developing vertebrate embryos. Changes in levels of Notch signaling (either increased or decreased) during development of the zebrafish embryo result in disruption of the symmetric, bilaterally formed somites, which can be readily observed. Thus, disruption of somitogenesis in zebrafish represents a convenient dose-sensitive readout for Notch pathway stimulation or inhibition. When 100 pg of mNotch1 was injected in mRNA, defects in somitogenesis in 90% of the embryos resulted (compared to 0% disrupted embryos in the control group) (FIG. 5). […] Disruption of somite formation was not observed, however, when embryos were soaked in vehicle control (DMSO). […] On three separate days, multiple clutches of embryos from two or more breeding pairs of the AB wild type line were combined and incubated at 28.5° C. for 8 hours in E3 medium with 0.1% (w/v) methylene blue. The embryos were then placed into fresh E3 medium with 0.1% (w/v) methylene blue containing 50 μM DMSO, 40 μM compound 1-134-83, or nothing. […] At 13 hours post fertilization, samples were collected and scored for the presence of discrete somite boarders on a Zeiss Stemi 2000-CS scope. Data was analyzed using Fisher's exact test in R3.1.0. […]

[3] = system: OE19 human esophageal adenocarcinoma xenograft; assay: OE19 cell line xenograft; type: in vivo; conditions: nude mouse
Source text: The effect of the inhibitors of the disclosure on tumor formation in an animal was investigated using a xenograft model. When introduced into the flank of nude mouse 5×10^6 OE19 cells, a human esophageal adenocarcinoma cell line readily forms tumors over the course of 4 weeks. […] In contrast, treatment under the same regimen with a DMSO control had no effect on tumor growth. […] (FIG. 4) Six-week-old NOD-SCID gamma (“NSG”) mice were purchased from Jackson Laboratories and CD-1 Nude mice were purchased from Charles River Laboratories. For the cell line based xenografts assay, 5×10^6 OE19 cells in 200 μl serum-free culture medium were injected subcutaneously per mouse. The mice in the treatment group were injected with 15 mg/kg of Inhibitor No. 1-134-83 daily, and the mice in the control group were injected with the same volume of vehicle (DMSO). Subcutaneous tumor growth was measured once every 4 days using calipers along with body weight. The experiment was discontinued on day 28. PDX cancer models were established, as described in Zhang et al, Establishment of Patient-Derived Xenograft (PDX) Models of Human Breast Cancer, Current Protocols in Mouse Biology, 3:21-29 (2013), in NSG mice. […] Tumor growth was monitored every 4 days and tumor volume was measured by the formula: Volume=(S×S×L)/2, where S and L are the short and long dimensions. […]

[4] = system: cancer cell lines (OE33, 786-0 and panel); assay: Colony formation assay; type: cell-based, human; conditions: for colony formation: 7 days
Experimental: as §1, §2
Cells were plated into a 6 well plate at a density of 2000 cells/cm^2. Inhibitor treatment commenced 24 hours post seeding, and the media containing inhibitor was changed every 48 hours thereafter. After 168 hours, cells were fixed with ice cold methanol for 10 minutes, stained for 1 hour with crystal violet, de-stained with water, and allowed to dry.

Compound: CCOC(=O)COc1ccc(/C=C2\SC(=S)NC2=O)cc1OC [1-134-83]
- Notch target gene transcription ([1]; OE33 and 786-0 cells, qPCR): dose-dependent decrease
- transcription of control gene HPRT ([1]; OE33 and 786-0 cells, qPCR): unaltered
- Notch target gene transcription ([1]; insensitive cancer cell lines of the panel, 48 hrs): do not show a statistically significant reduction
- Notch target gene transcription ([1]; sensitive cancer cell lines of the panel, 48 hrs, DAPT 10, 1-134-83 15 and 25 μM): significantly reduced
- somite formation in embryos [2]: disrupted somites
- adverse effects on the animal (e.g. change in body weight) ([3]; 15 mg/kg every day): no adverse effects
- tumor establishment ([3]; 15 mg/kg every day from second day after transplantation): tumor establishment was blocked
- colony formation ([4]; 786-0 and OE33 cells): dose-dependent reduction
- effective concentration ([4]; cancer cell lines): 5 µM
- cellular toxicity ([4]; cells refractory to DAPT, dose nearly 10× the effective concentration): did not induce any cellular toxicity
- colony formation ([4]; insensitive cell lines, high doses): do not show changes in colony formation ability
- colony formation ([4]; sensitive (Notch dependent) cell lines): dose-dependent decrease in colony formation
